According to PubChem BioAssay AID248 (DTP/NCI, 2004):
Values joined by “and” are separate entries in the source; they are usually repeats but may differ in a detail not shown here. Equal entries are not always repeated. Inconclusive results and toxic doses are left out. Rule as the data show it: active = T/C of 150% or more; inactive = T/C below 125%. Peptide text beside a SMILES is read from it.

System: L1210 leukemia ip in BDF1 mice, survival T/C
Assay: NCI In Vivo Anticancer Drug Screen. Data for tumor model L1210 Leukemia (intraperitoneal) in B6D2F1 (BDF1) mice
Details: endpoint: mean survival time, higher = longer survival
Summary of the method: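 Tumor cells were implanted, animals were treated, and survival was followed. The result divides the treated measurement by the vehicle-control measurement.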

[1] = dose: 100.0 mg/kg/injection, schedule: Q01DX009 (ip), vehicle: Klucel (hydroxypropylcellulose) (HPC)
[2] = dose: 100.0 mg/kg/injection, schedule: Q04DX003 (ip), vehicle: Klucel (hydroxypropylcellulose) (HPC)
[3] = dose: 200.0 mg/kg/injection, schedule: Q01DX009 (ip), vehicle: Klucel (hydroxypropylcellulose) (HPC)
[4] = dose: 200.0 mg/kg/injection, schedule: Q04DX003 (ip), vehicle: Klucel (hydroxypropylcellulose) (HPC)
[5] = dose: 400.0 mg/kg/injection, schedule: Q01DX009 (ip), vehicle: Klucel (hydroxypropylcellulose) (HPC)
[6] = dose: 400.0 mg/kg/injection, schedule: Q04DX003 (ip), vehicle: Klucel (hydroxypropylcellulose) (HPC)
[7] = dose: 50.0 mg/kg/injection, schedule: Q01DX001 (ip), vehicle: saline
[8] = dose: 100.0 mg/kg/injection, schedule: Q01DX001 (ip), vehicle: saline
[9] = dose: 100.0 mg/kg/injection, schedule: Q04DX003 (ip), vehicle: saline with Tween-80
[10] = dose: 200.0 mg/kg/injection, schedule: Q04DX003 (ip), vehicle: saline with Tween-80
[11] = dose: 100.0 mg/kg/injection, schedule: Q04DX002 (ip), vehicle: Klucel (hydroxypropylcellulose) (HPC)
[12] = dose: 200.0 mg/kg/injection, schedule: Q04DX002 (ip), vehicle: Klucel (hydroxypropylcellulose) (HPC)
[13] = dose: 400.0 mg/kg/injection, schedule: Q04DX002 (ip), vehicle: Klucel (hydroxypropylcellulose) (HPC)

Measured: T/C

C1CC2(C34CCC(CC3)C4)CCC1C2
inactive: dose: 50.0 mg/kg/injection, schedule: Q01DX001 (ip), vehicle: carboxymethylcellulose (CMC) 105 % of control | dose: 100.0 mg/kg/injection, schedule: Q01DX001 (ip), vehicle: carboxymethylcellulose (CMC) 96 % of control | dose: 200.0 mg/kg/injection, schedule: Q01DX001 (ip), vehicle: carboxymethylcellulose (CMC) 105 % of control | dose: 400.0 mg/kg/injection, schedule: Q01DX001 (ip), vehicle: carboxymethylcellulose (CMC) 88 % of control

ClC(Cl)(Cl)C1OCOC(C(Cl)(Cl)Cl)OCO1 (stereo not drawn)
inactive: [1] 94 % of control | [2] 98 % of control | [3] 93 % of control | [4] 98 % of control | [5] 94 % of control | [6] 102 % of control

C[CH2][Pb]([CH2]C)([CH2]C)[O]C(=O)CBr
inactive: dose: 0.78 mg/kg/injection, schedule: Q01DX009 (ip), vehicle: Klucel (hydroxypropylcellulose) (HPC) 92 % of control | dose: 1.56 mg/kg/injection, schedule: Q01DX009 (ip), vehicle: Klucel (hydroxypropylcellulose) (HPC) 103 % of control | dose: 3.12 mg/kg/injection, schedule: Q01DX009 (ip), vehicle: Klucel (hydroxypropylcellulose) (HPC) 98 % of control and 92 % of control | dose: 3.12 mg/kg/injection, schedule: Q04DX002 (ip), vehicle: Klucel (hydroxypropylcellulose) (HPC) 93 % of control | dose: 6.25 mg/kg/injection, schedule: Q04DX002 (ip), vehicle: Klucel (hydroxypropylcellulose) (HPC) 90 % of control | dose: 12.5 mg/kg/injection, schedule: Q04DX002 (ip), vehicle: Klucel (hydroxypropylcellulose) (HPC) 98 % of control and 106 % of control

C1OC1[C@@H]1CC[C@H]1C1CO1 (stereo partly drawn)
inactive: [7] 98 % of control and 112 % of control | dose: 51.1 mg/kg/injection, schedule: Q01DX Z (ip), vehicle: carboxymethylcellulose (CMC) 103 % of control | dose: 51.1 mg/kg/injection, schedule: Q01DX Z (ip), vehicle: methylcellulose (MC) 109 % of control | dose: 76.6 mg/kg/injection, schedule: Q01DX Z (ip), vehicle: carboxymethylcellulose (CMC) 114 % of control | dose: 76.6 mg/kg/injection, schedule: Q01DX Z (ip), vehicle: methylcellulose (MC) 118 % of control | dose: 88.0 mg/kg/injection, schedule: Q01DX001 (ip), vehicle: saline 107 % of control | [8] 112 % of control and 118 % of control | dose: 115.0 mg/kg/injection, schedule: Q01DX Z (ip), vehicle: methylcellulose (MC) 106 % of control | dose: 133.0 mg/kg/injection, schedule: Q01DX001 (ip), vehicle: saline 109 % of control

O=C(O)/C=C\c1cccc([N+](=O)[O-])c1
inactive: [9] 92 % of control | [10] 93 % of control | dose: 400.0 mg/kg/injection, schedule: Q04DX003 (ip), vehicle: saline with Tween-80 92 % of control

CCOCCNC1=C(Cl)C(=O)c2ccccc2C1=O
inactive: dose: 100.0 mg/kg/injection, schedule: Q01DX001 (ip), vehicle: other 97 % of control | dose: 200.0 mg/kg/injection, schedule: Q01DX001 (ip), vehicle: other 93 % of control | dose: 400.0 mg/kg/injection, schedule: Q01DX001 (ip), vehicle: other 90 % of control

CCOC=NC1=C(C#N)CN(Cc2ccccc2)CC1
inactive: [11] 93 % of control | [12] 93 % of control | [13] 90 % of control

CCC(C)C(CO)c1ccccc1 (stereo not drawn)
inactive: [9] 93 % of control | [10] 91 % of control

CCOC(=O)CSC(=S)N(C)C
inactive: dose: 100.0 mg/kg/injection, schedule: Q01DX001 (ip), vehicle: Klucel (hydroxypropylcellulose) (HPC) 102 % of control | [1] 95 % of control and 96 % of control and 111 % of control | [11] 102 % of control and 106 % of control | [2] 101 % of control | dose: 200.0 mg/kg/injection, schedule: Q01DX001 (ip), vehicle: Klucel (hydroxypropylcellulose) (HPC) 102 % of control | [3] 97 % of control and 104 % of control and 89 % of control | [12] 102 % of control and 103 % of control | [4] 93 % of control | dose: 400.0 mg/kg/injection, schedule: Q01DX001 (ip), vehicle: Klucel (hydroxypropylcellulose) (HPC) 96 % of control | [5] 89 % of control | [13] 103 % of control and 104 % of control | [6] 93 % of control

CCC(Cl)COP(=O)(OCC(Cl)CC)OC(c1ccc(Cl)c(Cl)c1)P(=O)(OCC(Cl)CC)OCC(Cl)CC (stereo not drawn)
inactive: dose: 50.0 mg/kg/injection, schedule: Q01DX001 (ip), vehicle: saline with Tween-80 95 % of control | dose: 100.0 mg/kg/injection, schedule: Q01DX001 (ip), vehicle: saline with Tween-80 103 % of control | dose: 200.0 mg/kg/injection, schedule: Q01DX001 (ip), vehicle: saline with Tween-80 93 % of control

CCOc1ccc(-c2nccs2)cc1N
inactive: dose: 75.0 mg/kg/injection, schedule: Q04DX003 (ip), vehicle: Klucel (hydroxypropylcellulose) (HPC) 104 % of control | dose: 150.0 mg/kg/injection, schedule: Q04DX003 (ip), vehicle: Klucel (hydroxypropylcellulose) (HPC) 92 % of control | dose: 300.0 mg/kg/injection, schedule: Q04DX003 (ip), vehicle: Klucel (hydroxypropylcellulose) (HPC) 93 % of control

CC(NC(=O)C(CCC(=O)O)NC(=O)C(N)C(C)C)C(=O)NCC(=O)NC(C(=O)NC(CCC(=O)O)C(=O)NC(C)C(=O)NCC(=O)NCC(=O)O)C(C)C (stereo not drawn) (H-VEAGVEAGG-OH; configuration not given here)
inactive: [7] 93 % of control | [8] 95 % of control | dose: 200.0 mg/kg/injection, schedule: Q01DX001 (ip), vehicle: saline 91 % of control

Cc1ccc(Cl)c(NC(=O)Nc2cccc(C(F)(F)F)c2)c1
inactive: [1] 87 % of control | [3] 87 % of control | [5] 90 % of control

CC1(C(Cl)(Cl)Cl)C=CC(=NO)C=C1 (stereo not drawn)
inactive: [9] 110 % of control | [10] 101 % of control

CCOc1ccc(NC(=O)C(C(C)N2CCCCC2)N2CCCCC2)cc1 (stereo not drawn)
inactive: dose: 12.5 mg/kg/injection, schedule: Q01DX001 (ip), vehicle: saline 94 % of control | dose: 12.5 mg/kg/injection, schedule: Q01DX009 (ip), vehicle: saline 95 % of control | dose: 12.5 mg/kg/injection, schedule: Q04DX003 (ip), vehicle: saline 97 % of control | dose: 25.0 mg/kg/injection, schedule: Q01DX001 (ip), vehicle: saline 95 % of control | dose: 25.0 mg/kg/injection, schedule: Q01DX009 (ip), vehicle: saline 92 % of control | dose: 25.0 mg/kg/injection, schedule: Q04DX003 (ip), vehicle: saline 95 % of control | [7] 90 % of control | dose: 50.0 mg/kg/injection, schedule: Q01DX009 (ip), vehicle: saline 91 % of control | dose: 50.0 mg/kg/injection, schedule: Q04DX003 (ip), vehicle: saline 92 % of control

CC1CCC(C(O)(C(=O)O)C2CCC(C)CC2)CC1 (stereo not drawn)
inactive: dose: 75.0 mg/kg/injection, schedule: Q01DX001 (ip), vehicle: other 104 % of control | dose: 150.0 mg/kg/injection, schedule: Q01DX001 (ip), vehicle: other 104 % of control
